Laboratory results taken from ChEMBL document CHEMBL1201862, “PubChem BioAssay data set” (2004).
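Briefly, cells in 96-well plates were exposed to five compound concentrations for 48 h, and endpoints were estimated by linear interpolation. At the GI50, growth is halved.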 The source made the active and inactive calls. Rule as the data show it: active = GI50 up to about 1.1 µM and inactive = higher.

Experiments:
Experiment in all cases: growth of human tumour cells (NCI), 48 h
CCRF-CEM = tested on: CCRF-CEM
SK-MEL-2 = tested on: SK-MEL-2
NCI-H226 = tested on: NCI-H226
SNB-75 = tested on: SNB-75
SF-295 = tested on: SF-295
SK-MEL-5 = tested on: SK-MEL-5
OVCAR-3 = tested on: OVCAR-3
OVCAR-4 = tested on: OVCAR-4
RPMI-8226 = tested on: RPMI-8226
SNB-78 = tested on: SNB-78
ACHN = tested on: ACHN
U-251 = tested on: U-251
A498 = tested on: A498
OVCAR-8 = tested on: OVCAR-8
A549 = tested on: A549
XF498 = tested on: XF498
UACC-257 = tested on: UACC-257
K562 = tested on: K562
Malme-3M = tested on: Malme-3M
DMS-273 = tested on: DMS-273
SF-268 = tested on: SF-268
SR = tested on: SR
HOP-62 = tested on: HOP-62
UACC-62 = tested on: UACC-62
SW-620 = tested on: SW-620
HCC 2998 = tested on: HCC 2998
DLD-1 = tested on: DLD-1
HL-60 = tested on: HL-60
M14 = tested on: M14
TK-10 = tested on: TK-10
SNB-19 = tested on: SNB-19
HOP-92 = tested on: HOP-92
KM-20L2 = tested on: KM-20L2
SN12C = tested on: SN12C
SK-OV-3 = tested on: SK-OV-3
COLO 205 = tested on: COLO 205
KM12 = tested on: KM12
HCT-15 = tested on: HCT-15
SK-MEL-28 = tested on: SK-MEL-28
HT-29 = tested on: HT-29
LXFL 529 = tested on: LXFL 529
NCI-H460 = tested on: NCI-H460
OVCAR-5 = tested on: OVCAR-5
SF-539 = tested on: SF-539
NCI-H23 = tested on: NCI-H23
786-0 = tested on: 786-0
HOP-18 = tested on: HOP-18
NCI-H522 = tested on: NCI-H522
UO-31 = tested on: UO-31
EKVX = tested on: EKVX
IGROV-1 = tested on: IGROV-1
DMS-114 = tested on: DMS-114
CAKI-1 = tested on: CAKI-1
RXF 393 = tested on: RXF 393
HCT-116 = tested on: HCT-116
M19-MEL = tested on: M19-MEL
MOLT-4 = tested on: MOLT-4
LOX IMVI = tested on: LOX IMVI
RXF 631 = tested on: RXF 631

## Nc1nc(CCC(=O)Nc2cccc(C(F)(F)F)c2)cc(-c2ccc3ccccc3c2)n1
CCRF-CEM
  GI50: > 100 µM (inactive)
SK-MEL-2
  GI50: > 100 µM (inactive)
NCI-H226
  GI50: > 100 µM (inactive)
SNB-75
  GI50: > 100 µM (inactive)
SF-295
  GI50: > 100 µM (inactive)
SK-MEL-5
  GI50: > 100 µM (inactive)
OVCAR-3
  GI50: > 100 µM (inactive)
OVCAR-4
  GI50: > 100 µM (inactive)
RPMI-8226
  GI50: > 100 µM (inactive)
SNB-78
  GI50: > 100 µM (inactive)
ACHN
  GI50: > 100 µM (inactive)
U-251
  GI50: > 100 µM (inactive)
A498
  GI50: > 100 µM (inactive)
OVCAR-8
  GI50: > 100 µM (inactive)
A549
  GI50: > 100 µM (inactive)
XF498
  GI50: > 100 µM (inactive)
UACC-257
  GI50: > 100 µM (inactive)
K562
  GI50: > 100 µM (inactive)
Malme-3M
  GI50: > 100 µM (inactive)
DMS-273
  GI50: > 100 µM (inactive)
SF-268
  GI50: > 100 µM (inactive)
SR
  GI50: > 100 µM (inactive)
HOP-62
  GI50: > 100 µM (inactive)
UACC-62
  GI50: > 100 µM (inactive)
SW-620
  GI50: > 100 µM (inactive)
HCC 2998
  GI50: > 100 µM (inactive)
DLD-1
  GI50: > 100 µM (inactive)
HL-60
  GI50: > 100 µM (inactive)
M14
  GI50: > 100 µM (inactive)
TK-10
  GI50: > 100 µM (inactive)
SNB-19
  GI50: > 100 µM (inactive)
HOP-92
  GI50: > 100 µM (inactive)
KM-20L2
  GI50: > 100 µM (inactive)
SN12C
  GI50: > 100 µM (inactive)
SK-OV-3
  GI50: > 100 µM (inactive)
COLO 205
  GI50: > 100 µM (inactive)
KM12
  GI50: > 100 µM (inactive)
HCT-15
  GI50: > 100 µM
SK-MEL-28
  GI50: > 100 µM (inactive)
HT-29
  GI50: > 100 µM (inactive)
LXFL 529
  GI50: > 100 µM (inactive)
NCI-H460
  GI50: > 100 µM (inactive)
OVCAR-5
  GI50: > 100 µM (inactive)
SF-539
  GI50: > 100 µM (inactive)
NCI-H23
  GI50: > 100 µM (inactive)
786-0
  GI50: > 100 µM (inactive)
HOP-18
  GI50: > 100 µM (inactive)
NCI-H522
  GI50: > 100 µM (inactive)
UO-31
  GI50: > 100 µM (inactive)
EKVX
  GI50: > 100 µM (inactive)
IGROV-1
  GI50: > 100 µM (inactive)
DMS-114
  GI50: > 100 µM (inactive)
CAKI-1
  GI50: > 100 µM (inactive)
RXF 393
  GI50: > 100 µM (inactive)
HCT-116
  GI50: > 100 µM (inactive)
M19-MEL
  GI50: > 100 µM (inactive)
MOLT-4
  GI50: > 100 µM (inactive)

## COc1cc2c(c(OC)c1OC)-c1ccc(SC)c(=O)cc1[C@@H](NC(=O)c1ccc(Cl)cc1)CC2
CCRF-CEM
  GI50: < 0.01 µM (active)
SK-MEL-2
  GI50: < 0.01 µM (active)
NCI-H226
  GI50: < 0.01 µM (active)
SNB-75
  GI50: 2.16 µM (inactive)
SF-295
  GI50: < 0.01 µM (active)
SK-MEL-5
  GI50: < 0.01 µM (active)
OVCAR-3
  GI50: < 0.01 µM (active)
OVCAR-4
  GI50: < 0.01 µM (active)
RPMI-8226
  GI50: < 0.01 µM (active)
ACHN
  GI50: < 0.01 µM (active)
U-251
  GI50: < 0.01 µM (active)
A498
  GI50: < 0.01 µM (active)
OVCAR-8
  GI50: < 0.01 µM (active)
LOX IMVI
  GI50: < 0.01 µM (active)
A549
  GI50: < 0.01 µM (active)
UACC-257
  GI50: < 0.01 µM (active)
K562
  GI50: < 0.01 µM (active)
Malme-3M
  GI50: < 0.01 µM (active)
DMS-273
  GI50: < 0.01 µM (active)
SF-268
  GI50: < 0.01 µM (active)
SR
  GI50: < 0.01 µM (active)
HOP-62
  GI50: < 0.01 µM (active)
UACC-62
  GI50: < 0.01 µM (active)
SW-620
  GI50: < 0.01 µM (active)
HCC 2998
  GI50: < 0.01 µM (active)
DLD-1
  GI50: < 0.01 µM (active)
HL-60
  GI50: < 0.01 µM (active)
M14
  GI50: < 0.01 µM (active)
TK-10
  GI50: 2.36 µM (inactive)
SNB-19
  GI50: < 0.01 µM (active)
KM-20L2
  GI50: < 0.01 µM (active)
SN12C
  GI50: < 0.01 µM (active)
COLO 205
  GI50: < 0.01 µM (active)
HCT-15
  GI50: < 0.01 µM
RXF 631
  GI50: < 0.01 µM (active)
SK-MEL-28
  GI50: 13.9 µM (inactive)
HT-29
  GI50: < 0.01 µM (active)
LXFL 529
  GI50: < 0.01 µM (active)
NCI-H460
  GI50: < 0.01 µM (active)
SF-539
  GI50: < 0.01 µM (active)
NCI-H23
  GI50: < 0.01 µM (active)
786-0
  GI50: < 0.01 µM (active)
UO-31
  GI50: 0.0196 µM (active)
IGROV-1
  GI50: < 0.01 µM (active)
DMS-114
  GI50: < 0.01 µM (active)
RXF 393
  GI50: < 0.01 µM (active)
HCT-116
  GI50: < 0.01 µM (active)
M19-MEL
  GI50: < 0.01 µM (active)
MOLT-4
  GI50: < 0.01 µM (active)
